# Assay results from patent publication US11779600B2, “Methods of treating or preventing alzheimer's disease and associated conditions” (CEDARS-SINAI MEDICAL CENTER, priority 2016, dated 2023).
# Test system: iNOS
# Test: iNOS expression in macrophages by quantitative ICC
# Assay type: cell-based, mouse
# Conditions: 24 hours treatment, then fAβ1-42 for 30 min; quantitative ICC (FIG. 16D)
# Description: To test amyloid-β phagocytosis by macrophage, in repeated experiments monocytes were isolated from the bone marrow of wild-type mice (n=18 mice) and differentiated into macro-phage by 7-day cultivation in complete RPMI-1640 medium (#21870; Life Technologies) with 10% serum and 20 ng/ml MCSF (#315-02; PeproTech). Bone marrow-derived macrophages (MΦBM) were generated from femurs and tibiae cultured for 6-7 days in complete RPMI 1640 medium (Life Technologies) with 10% FBS, 100 U/ml penicillin, 100 μg/ml streptomycin, 2 mM L-glutamine and 20 ng/ml MCSF (PeproTech). Primary cultures of macrophage were then plated at 1.2×10^5 cells per well (3-4 wells for each condition) in 24-well tissue-culture plates on glass cover-slips overnight. […] The fluorescent signal and its total area were determined and quantified by the conversion of individual images to greyscale and standardizing to baseline using histogram-based thresholds with NIH ImageJ software. […]
# The expression of inducible nitric oxide synthase (iNOS), a hallmark of the proinflammatory M1 macrophage phenotype, in different treatment groups was assessed next (FIG. 16C-16D). […] Quantitative ICC assays confirmed a significant ˜1.3-fold increase in iNOS expression by minocycline-treated macrophages, and a substantial 48% reduction in Aβ^1-42 phagocytosis. […]
substance,measurement,value
glatiramer acetate [GA],reduction of iNOS production,28%
